From ChEMBL document CHEMBL5620405, “A platform for the rapid synthesis of molecular glues (Rapid-Glue) under miniaturized conditions for direct biological screening” (Eur J Med Chem, 2023)
Active and inactive are the calls of the source. The rule behind the calls is not given here.

Assays:
[1] = system: RS4-11; assay: Antiproliferative activity against human RS4-11 cells assessed as reduction in cell viability measured after 72 hrs by Alamar blue assay; format: functional, cell-based; conditions: RS4-11, 72 h
[2] = system: MOLT-4; assay: Antiproliferative activity against human MOLT-4 cells assessed as reduction in cell viability measured after 72 hrs by Alamar blue assay; format: functional, cell-based; conditions: MOLT-4, 72 h
[3] = system: MOLT-4; assay: Antiproliferative activity against human MOLT-4 cells assessed as cell viability at 1 uM measured after 72 hrs by Alamar blue assay; format: functional; conditions: read-out: Activity
[4] = system: RS4-11; assay: Antiproliferative activity against human RS4-11 cells assessed as cell viability at 1 uM measured after 72 hrs by Alamar blue assay; format: functional; conditions: read-out: Activity
[5] = system: MM1.S; assay: Antiproliferative activity against human MM1.S cells assessed as reduction in cell viability measured after 72 hrs by Alamar blue assay; format: functional, cell-based
[6] = molecular target: T1, Protein cereblon/Eukaryotic peptide chain release factor GTP-binding subunit ERF3A (Homo sapiens, UniProt Q96SW2+P15170); assay: Molecular glue activity at CRBN/GSPT1 in human RS4-11 cells assessed as induction of GSPT1 degradation by western blot analysis; format: cell-based
Target sequence in this assay (Q96SW2 whole entry): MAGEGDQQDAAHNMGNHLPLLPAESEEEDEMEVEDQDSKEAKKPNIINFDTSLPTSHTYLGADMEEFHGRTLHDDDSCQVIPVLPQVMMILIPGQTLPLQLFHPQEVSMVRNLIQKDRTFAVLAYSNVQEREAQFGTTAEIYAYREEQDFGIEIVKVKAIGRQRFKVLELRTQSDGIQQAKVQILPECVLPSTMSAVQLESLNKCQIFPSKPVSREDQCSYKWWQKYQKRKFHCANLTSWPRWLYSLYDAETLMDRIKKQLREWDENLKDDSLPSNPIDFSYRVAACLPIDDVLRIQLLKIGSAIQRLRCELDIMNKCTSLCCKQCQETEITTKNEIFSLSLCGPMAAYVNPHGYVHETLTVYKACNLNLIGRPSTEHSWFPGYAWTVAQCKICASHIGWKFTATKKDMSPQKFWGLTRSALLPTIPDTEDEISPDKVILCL
Target sequence in this assay (P15170 whole entry): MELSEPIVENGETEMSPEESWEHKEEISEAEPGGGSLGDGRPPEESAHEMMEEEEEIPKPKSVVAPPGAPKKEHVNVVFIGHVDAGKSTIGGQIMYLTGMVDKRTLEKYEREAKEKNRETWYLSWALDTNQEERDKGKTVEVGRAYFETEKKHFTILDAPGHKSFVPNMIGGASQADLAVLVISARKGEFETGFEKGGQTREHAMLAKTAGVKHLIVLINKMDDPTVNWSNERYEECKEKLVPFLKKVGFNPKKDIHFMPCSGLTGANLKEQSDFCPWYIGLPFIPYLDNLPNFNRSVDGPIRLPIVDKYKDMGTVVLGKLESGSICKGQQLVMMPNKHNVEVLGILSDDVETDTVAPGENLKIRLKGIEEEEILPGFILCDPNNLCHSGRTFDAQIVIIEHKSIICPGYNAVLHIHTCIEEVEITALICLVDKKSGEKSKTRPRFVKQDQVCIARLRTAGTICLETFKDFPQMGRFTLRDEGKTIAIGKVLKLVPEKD

[7] = molecular target: T1, Protein cereblon/Eukaryotic peptide chain release factor GTP-binding subunit ERF3A; assay: Molecular glue activity at CRBN/GSPT1 in human RS4-11 cells assessed as induction of GSPT1 degradation at 1 uM measured after 4 hrs by western blot analysis; format: cell-based
Target sequence in this assay (P15170 whole entry, looked up): as the sequence (P15170 whole entry) above
Target sequence in this assay (Q96SW2 whole entry, looked up): as the sequence (Q96SW2 whole entry) above

[8] = molecular target: T1, Protein cereblon/Eukaryotic peptide chain release factor GTP-binding subunit ERF3A; assay: Molecular glue activity at CRBN/GSPT1 in human RS4-11 cells assessed as induction of GSPT1 degradation at 1 uM by western blot analysis; format: cell-based; conditions: time 0.5-24 hrs, TDE = time-dependent effect
Target sequence in this assay (P15170 whole entry, looked up): as the sequence (P15170 whole entry) above
Target sequence in this assay (Q96SW2 whole entry, looked up): as the sequence (Q96SW2 whole entry) above

[9] = system: RS4-11; assay: Antiproliferative activity against human RS4-11 cells assessed as cell viability at 0.1 uM measured after 72 hrs by Alamar blue assay; format: functional; conditions: read-out: Activity
[10] = molecular target: T1, Protein cereblon/Eukaryotic peptide chain release factor GTP-binding subunit ERF3A; assay: Molecular glue activity at CRBN/GSPT1 in human RS4-11 cells assessed as downregulation of GSPT1 expression at 1 uM measured after 6 hrs by TMT-mass spectrometry; format: cell-based
Target sequence in this assay (P15170 whole entry, looked up): as the sequence (P15170 whole entry) above
Target sequence in this assay (Q96SW2 whole entry, looked up): as the sequence (Q96SW2 whole entry) above

[11] = system: RS4-11; assay: Antiproliferative activity against human RS4-11 cells assessed as cell viability at 0.5 uM measured after 72 hrs by Alamar blue assay; format: functional; conditions: read-out: Activity
[12] = molecular target: T1, Protein cereblon/Eukaryotic peptide chain release factor GTP-binding subunit ERF3A; assay: Molecular glue activity at CRBN/GSPT1 in human RS4-11 cells assessed as induction of GSPT1 degradation measured after 12 hrs by western blot analysis; format: cell-based; conditions: dose 0.0001-10 µM
Target sequence in this assay (P15170 whole entry, looked up): as the sequence (P15170 whole entry) above
Target sequence in this assay (Q96SW2 whole entry, looked up): as the sequence (Q96SW2 whole entry) above

[13] = molecular target: T1, Protein cereblon/Eukaryotic peptide chain release factor GTP-binding subunit ERF3A; assay: Molecular glue activity at CRBN/GSPT1 in human RS4-11 cells assessed as induction of GSPT1 degradation by measuring reduction in GSPT1 level measured for 6 hrs by western blot analysis; format: cell-based; parameters: scale not given: the % may be the effect or the level left
Target sequence in this assay (P15170 whole entry, looked up): as the sequence (P15170 whole entry) above
Target sequence in this assay (Q96SW2 whole entry, looked up): as the sequence (Q96SW2 whole entry) above

[14] = molecular target: T1, Protein cereblon/Eukaryotic peptide chain release factor GTP-binding subunit ERF3A; assay: Molecular glue activity at CRBN/GSPT1 in human RS4-11 cells assessed as induction of GSPT1 degradation at 0.1 uM measured after 24 hrs by western blot analysis; format: cell-based
Target sequence in this assay (P15170 whole entry, looked up): as the sequence (P15170 whole entry) above
Target sequence in this assay (Q96SW2 whole entry, looked up): as the sequence (Q96SW2 whole entry) above

| SMILES | IC50 [1] | IC50 [2] | viability at 1 µM [3] | viability at 1 µM [4] | IC50 [5] | DC50 [6] | other results |
| --- | --- | --- | --- | --- | --- | --- | --- |
| CN1C(=O)CCC(N2Cc3c(cccc3-c3ccccc3OCC(=O)N/N=C/c3cn(S(=O)(=O)c4ccccc4)c4ccccc34)C2=O)C1=O (centres undefined) | > 1000 nM | > 1000 nM | > 100% | 97% | > 10000 nM |  |  |
| CN1C(=O)CCC(N2Cc3cc(-c4ccc(OCC(=O)N/N=C/c5c(Cl)ccc(C(F)(F)F)c5Cl)cc4)ccc3C2=O)C1=O (centres undefined) |  |  | > 100% | > 100% |  |  |  |
| O=C(COc1ccccc1-c1cccc2c1CN(C1CCC(=O)NC1=O)C2=O)NCCc1cn(S(=O)(=O)c2ccccc2)c2ccccc12 (centres undefined) |  |  |  |  |  | 168 nM |  |
| O=C(COc1ccccc1-c1cccc2c1CN(C1CCC(=O)NC1=O)C2=O)NCc1nn(Cc2ccccc2)c2ccccc12 (centres undefined) |  |  |  |  |  | 785 nM |  |
| O=C(COc1ccccc1-c1cccc2c1CN(C1CCC(=O)NC1=O)C2=O)N/N=C/c1nn(Cc2ccccc2)c2ccccc12 (centres undefined) | 2 nM | 260 nM | 7% | 11% | 370 nM | 50 nM | Activity [7]: 100%; Activity [8]: Tde; viability at 0.1 µM [9]: 86%; Activity [10]: Active; viability at 0.5 µM [11]: 6%; Activity [12]: Dose-Dependent Effect; Activity [13]: > 50%; Activity [14]: 100% |
| O=C(COc1ccc(-c2ccc3c(c2)CN(C2CCC(=O)NC2=O)C3=O)cc1)N/N=C/c1c(Cl)ccc(C(F)(F)F)c1Cl (centres undefined) |  |  | 74% | 47% |  |  |  |
| CN1C(=O)CCC(N2Cc3c(cccc3-c3ccccc3OCC(=O)N/N=C/c3nn(Cc4ccccc4)c4ccccc34)C2=O)C1=O (centres undefined) | > 1000 nM | > 1000 nM | > 100% | 98% | > 1000 nM |  |  |
| O=C(COc1ccccc1-c1cccc2c1CN(C1CCC(=O)NC1=O)C2=O)NCc1cn(S(=O)(=O)c2ccccc2)c2ccccc12 (centres undefined) |  |  |  |  |  | 166 nM |  |
| O=C1CCC(N2Cc3cc(CNC(=O)C(F)(F)c4ccc(Cl)cc4)ccc3C2=O)C(=O)N1 (centres undefined) | 0.1 nM |  |  |  |  |  |  |
| CN1C(=O)CCC(N2Cc3cc(-c4ccc(OCC(=O)N/N=C/c5c(C(F)(F)F)ccc(Cl)c5Cl)cc4)ccc3C2=O)C1=O (centres undefined) |  |  | > 100% | > 100% |  |  |  |
| O=C(COc1ccc(-c2ccc3c(c2)CN(C2CCC(=O)NC2=O)C3=O)cc1)N/N=C/c1c(C(F)(F)F)ccc(Cl)c1Cl (centres undefined) |  |  | 67% | 54% |  |  |  |
| CN1CCN(c2ncc(/C=N/NC(=O)COc3ccccc3-c3cccc4c3CN(C3CCC(=O)N(C)C3=O)C4=O)s2)CC1 (centres undefined) | > 1000 nM | > 10000 nM | > 100% | 96% | > 10000 nM |  |  |
| O=C(COc1ccccc1-c1cccc2c1CN(C1CCC(=O)NC1=O)C2=O)N/N=C/c1cn(S(=O)(=O)c2ccccc2)c2ccccc12 (centres undefined) | 7 nM | 175 nM | 43% | 15% | 131 nM | 154 nM | Activity [7]: 100%; Activity [8]: Tde; viability at 0.1 µM [9]: 52%; Activity [10]: Active; viability at 0.5 µM [11]: 5%; Activity [12]: Dose-Dependent Effect; Activity [13]: > 50%; Activity [14]: 100% |
| Cc1nc2ccccn2c1/C=N/NC(=O)COc1ccccc1-c1cccc2c1CN(C1CCC(=O)N(C)C1=O)C2=O (centres undefined) | > 10000 nM | > 10000 nM | > 100% | 89% | > 10000 nM |  |  |
| CN1CCN(c2ncc(/C=N/NC(=O)COc3ccccc3-c3cccc4c3CN(C3CCC(=O)NC3=O)C4=O)s2)CC1 (centres undefined) | 71 nM | > 1000 nM | 66% | 24% | > 10000 nM |  | viability at 0.1 µM [9]: 56%; viability at 0.5 µM [11]: 23% |
| Cc1nc2ccccn2c1/C=N/NC(=O)COc1ccccc1-c1cccc2c1CN(C1CCC(=O)NC1=O)C2=O (centres undefined) | 7 nM | > 10000 nM | 52% | 25% | > 10000 nM |  | viability at 0.1 µM [9]: 46%; viability at 0.5 µM [11]: 15% |
